Source: US20250368627A1, “PYRAZOLESULFONAMIDES AS ANTITUMOR AGENTS” (Peloton Therapeutics, Inc., a fully owned subsidiary of …, priority 2019, published 2025)

Assays:
[1] = target: T1, DDB1DB/DCAF15 and RBM39 R1R2 complex (Homo sapiens, UniProt Q14498+Q66K64); experiment: DCAF15 RBM39 Complex Formation Assay (FRET); type: binding; conditions: FRET ratio Em 665/Em 615, incubated overnight at 4° C.
T1 construct: Amino acids 150 to 331 of RBM39 were cloned into pGEX4T3; GST (from vector pGEX4T3); TEV cleavage site (N); made in house; host or cells: DDB1DB/His-DCAF15: baculovirus/Sf9 co-expression; RBM39 R1R2: E. coli (pGEX4T3)
T1 sequence (Q66K64 whole entry, the tested form may be a part): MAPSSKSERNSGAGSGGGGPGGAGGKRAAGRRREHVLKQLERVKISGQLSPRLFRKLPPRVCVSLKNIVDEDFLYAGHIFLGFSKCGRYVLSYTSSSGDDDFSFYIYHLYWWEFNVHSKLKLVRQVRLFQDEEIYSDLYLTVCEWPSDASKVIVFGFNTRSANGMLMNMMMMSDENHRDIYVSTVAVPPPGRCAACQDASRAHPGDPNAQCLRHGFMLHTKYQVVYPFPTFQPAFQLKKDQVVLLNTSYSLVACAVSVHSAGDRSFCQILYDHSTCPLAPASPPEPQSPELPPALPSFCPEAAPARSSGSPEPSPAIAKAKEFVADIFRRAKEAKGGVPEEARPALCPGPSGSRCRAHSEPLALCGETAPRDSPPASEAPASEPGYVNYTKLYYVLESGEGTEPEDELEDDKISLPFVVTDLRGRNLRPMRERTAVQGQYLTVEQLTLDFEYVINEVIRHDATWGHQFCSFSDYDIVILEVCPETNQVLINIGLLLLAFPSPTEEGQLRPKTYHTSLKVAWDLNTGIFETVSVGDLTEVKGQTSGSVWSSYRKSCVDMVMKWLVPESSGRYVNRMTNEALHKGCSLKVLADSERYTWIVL
T1 sequence (Q14498 150-331): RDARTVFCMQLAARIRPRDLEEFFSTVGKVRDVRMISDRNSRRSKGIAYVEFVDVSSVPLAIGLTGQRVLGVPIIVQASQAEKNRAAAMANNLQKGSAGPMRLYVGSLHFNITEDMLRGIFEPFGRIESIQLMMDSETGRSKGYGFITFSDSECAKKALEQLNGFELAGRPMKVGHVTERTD
T1 sequence (Q16531 with tags, fused parts or gaps DEL396-708 partner): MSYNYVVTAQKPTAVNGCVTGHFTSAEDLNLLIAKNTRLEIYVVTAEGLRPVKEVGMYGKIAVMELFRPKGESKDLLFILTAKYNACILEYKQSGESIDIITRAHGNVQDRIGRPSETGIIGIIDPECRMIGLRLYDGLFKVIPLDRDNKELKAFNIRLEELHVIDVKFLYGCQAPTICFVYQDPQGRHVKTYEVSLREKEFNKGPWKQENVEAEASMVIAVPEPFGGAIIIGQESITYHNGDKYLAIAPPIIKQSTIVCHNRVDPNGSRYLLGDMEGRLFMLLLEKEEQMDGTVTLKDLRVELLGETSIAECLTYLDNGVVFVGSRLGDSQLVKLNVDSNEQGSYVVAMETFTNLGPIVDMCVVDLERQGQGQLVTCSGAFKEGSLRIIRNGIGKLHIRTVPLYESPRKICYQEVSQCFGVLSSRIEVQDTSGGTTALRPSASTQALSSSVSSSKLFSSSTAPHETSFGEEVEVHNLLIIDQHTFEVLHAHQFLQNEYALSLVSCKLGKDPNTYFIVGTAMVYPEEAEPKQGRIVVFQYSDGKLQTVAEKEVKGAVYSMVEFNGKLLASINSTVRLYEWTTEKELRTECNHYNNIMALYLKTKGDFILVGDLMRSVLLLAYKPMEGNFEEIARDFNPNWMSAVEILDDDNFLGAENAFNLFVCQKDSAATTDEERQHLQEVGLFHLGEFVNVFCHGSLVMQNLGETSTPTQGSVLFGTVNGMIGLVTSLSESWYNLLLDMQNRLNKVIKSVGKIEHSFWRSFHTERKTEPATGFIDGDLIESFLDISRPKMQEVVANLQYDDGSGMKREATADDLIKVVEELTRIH
In short: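 Ternary complex formation read by TR-FRET (Em 665/615, excitation 340 nm) after overnight incubation at 4° C of 20 nM baculovirus DDB1DB/His-DCAF15 and 50 nM E. coli RBM39 RRM1-RRM2 FLAG fragment with 14-point, 3-fold compound dilutions from 1 μM; EC50 from 4-parameter fit.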

[2] = system: HCT116 human colorectal carcinoma cells; experiment: CellTiter-Glo Luminescent Cell Viability Assay; type: cell-based; conditions: HCT-116, 72 h, 3 days
In short: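 HCT116 cells were exposed for 3 days to compound in triplicate at final concentrations of 5 to 0.0002 […] (1:3 dilutions). Viability was read by CellTiter-Glo luminescence, and IC50 values were calculated.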

| Compound | IC50 [1] | EC50 [2] |
| --- | --- | --- |
| CC(C)(O)Cn1cc(S(=O)(=O)Nc2ccc(Cl)c3c(C#N)c[nH]c23)c(F)n1 [Compound 204, N-(4-chloro-3-cyano-1H-indol-7-yl)-3-fluoro-1-(2-hydroxy-2-methyl-propyl)pyrazole-4-sulfonamide] | < 250 nM | > 1000 nM |
| Cc1ccc(NS(=O)(=O)c2cn(CC(C)(C)O)nc2F)c2[nH]cc(C#N)c12 [Compound 205, N-(3-cyano-4-methyl-1H-indol-7-yl)-3-fluoro-1-(2-hydroxy-2-methyl-propyl)pyrazole-4-sulfonamide] | < 250 nM | 250 to 1000 nM |
| CC(C)(O)Cn1cc(S(=O)(=O)Nc2ccc(F)c3c(C#N)c[nH]c23)c(F)n1 [Compound 206, N-(3-cyano-4-fluoro-1H-indol-7-yl)-3-fluoro-1-(2-hydroxy-2-methyl-propyl)pyrazole-4-sulfonamide] | < 250 nM | > 1000 nM |
| Cc1ccc(NS(=O)(=O)c2cnn([C@H](C)CO)c2)c2[nH]cc(C#N)c12 [Compound 207, (R)—N-(3-cyano-4-methyl-1H-indol-7-yl)-1-(1-hydroxypropan-2-yl)-1H-pyrazole-4-sulfonamide] | < 250 nM | < 250 nM |
| C[C@H](CO)n1cc(S(=O)(=O)Nc2ccc(Cl)c3c(C#N)c[nH]c23)cn1 [Compound 208, (R)—N-(4-chloro-3-cyano-1H-indol-7-yl)-1-(1-hydroxypropan-2-yl)-1H-pyrazole-4-sulfonamide] | < 250 nM | 250 to 1000 nM |
| N#Cc1c[nH]c2c(NS(=O)(=O)c3cnn(CCCO)c3)ccc(Cl)c12 [Compound 209, N-(4-chloro-3-cyano-1H-indol-7-yl)-1-(3-hydroxypropyl)-1H-pyrazole-4-sulfonamide] | < 250 nM | 250 to 1000 nM |
| Cc1ccc(NS(=O)(=O)c2cnn(CCCO)c2)c2[nH]cc(C#N)c12 [Compound 210, N-(3-cyano-4-methyl-1H-indol-7-yl)-1-(3-hydroxypropyl)pyrazole-4-sulfonamide] | < 250 nM | 250 to 1000 nM |
| N#Cc1c[nH]c2c(NS(=O)(=O)c3cnn(CCCO)c3)ccc(F)c12 [Compound 211, N-(3-cyano-4-fluoro-1H-indol-7-yl)-1-(3-hydroxypropyl)pyrazole-4-sulfonamide] | < 250 nM | 250 to 1000 nM |
| C[C@H](CO)n1cc(S(=O)(=O)Nc2ccc(F)c3c(C#N)c[nH]c23)cn1 [Compound 212, (R)—N-(3-cyano-4-fluoro-1H-indol-7-yl)-1-(1-hydroxypropan-2-yl)-1H-pyrazole-4-sulfonamide] | < 250 nM | 250 to 1000 nM |
| C[C@H](C(N)=O)n1cc(S(=O)(=O)Nc2ccc(Cl)c3c(C#N)c[nH]c23)cn1 [Compound 213, (2R)-2-[4-[(4-chloro-3-cyano-1H-indol-7-yl)sulfamoyl]pyrazol-1-yl]propanamide] | < 250 nM | 250 to 1000 nM |
| N#Cc1c[nH]c2c(NS(=O)(=O)c3cn[nH]c3)ccc(F)c12 [Compound 214, N-(3-cyano-4-fluoro-1H-indol-7-yl)-1H-pyrazole-4-sulfonamide] | < 250 nM | > 1000 nM |
| N#Cc1c[nH]c2c(NS(=O)(=O)c3cnn(C(F)F)c3)ccc(F)c12 [Compound 215, N-(3-cyano-4-fluoro-1H-indol-7-yl)-1-(difluoromethyl)pyrazole-4-sulfonamide] | < 250 nM | 250 to 1000 nM |
| N#Cc1c[nH]c2c(NS(=O)(=O)c3cnn(CC(F)(F)F)c3)ccc(F)c12 [Compound 216, N-(3-cyano-4-fluoro-1H-indol-7-yl)-1-(2,2,2-trifluoroethyl)pyrazole-4-sulfonamide] | < 250 nM | 250 to 1000 nM |
| CCn1cc(S(=O)(=O)Nc2ccc(F)c3c(C#N)c[nH]c23)cn1 [Compound 217, N-(3-cyano-4-fluoro-1H-indol-7-yl)-1-ethyl-pyrazole-4-sulfonamide] | < 250 nM | 250 to 1000 nM |
| Cc1ccc(NS(=O)(=O)c2cnn(C34CC(C3)C4)c2)c2[nH]cc(C#N)c12 [Compound 218, 1-(3-bicyclo[1.1.1]pentanyl)-N-(3-cyano-4-methyl-1H-indol-7-yl)pyrazole-4-sulfonamide] | < 250 nM | 250 to 1000 nM |
| N#Cc1c[nH]c2c(NS(=O)(=O)c3cnn(C45CC(C4)C5)c3)ccc(F)c12 [Compound 219, 1-(3-bicyclo[1.1.1]pentanyl)-N-(3-cyano-4-fluoro-1H-indol-7-yl)pyrazole-4-sulfonamide] | < 250 nM | 250 to 1000 nM |
| CC(C)(O)CCn1cc(S(=O)(=O)Nc2ccc(Cl)c3c(C#N)c[nH]c23)cn1 [Compound 220, N-(4-chloro-3-cyano-1H-indol-7-yl)-1-(3-hydroxy-3-methyl-butyl)pyrazole-4-sulfonamide] | < 250 nM | 250 to 1000 nM |
| Cc1ccc(NS(=O)(=O)c2cnn(CCC(C)(C)O)c2)c2[nH]cc(C#N)c12 [Compound 221, N-(3-cyano-4-methyl-1H-indol-7-yl)-1-(3-hydroxy-3-methyl-butyl)pyrazole-4-sulfonamide] | < 250 nM | < 250 nM |
| CC(C)(O)CCn1cc(S(=O)(=O)Nc2ccc(F)c3c(C#N)c[nH]c23)cn1 [Compound 222, N-(3-cyano-4-fluoro-1H-indol-7-yl)-1-(3-hydroxy-3-methyl-butyl)pyrazole-4-sulfonamide] | < 250 nM | 250 to 1000 nM |
| N#Cc1c[nH]c2c(NS(=O)(=O)c3cnn(C45CC(C4)C5)c3)ccc(Cl)c12 [Compound 223, 1-(3-bicyclo[1.1.1]pentanyl)-N-(4-chloro-3-cyano-1H-indol-7-yl)pyrazole-4-sulfonamide] | < 250 nM | 250 to 1000 nM |
| CC(C)(CO)n1cc(S(=O)(=O)Nc2ccc(F)c3c(C#N)c[nH]c23)cn1 [Compound 224, N-(3-cyano-4-fluoro-1H-indol-7-yl)-1-(2-hydroxy-1,1-dimethyl-ethyl)pyrazole-4-sulfonamide] | < 250 nM | 250 to 1000 nM |

Next, values leading:

| IC50 [1] | EC50 [2] | Compound |
| --- | --- | --- |
| < 250 nM | > 1000 nM | N#Cc1c[nH]c2c(NS(=O)(=O)c3cnn(CC4(O)CCOCC4)c3)ccc(Cl)c12 [Compound 184, N-(4-chloro-3-cyano-1H-indol-7-yl)-1-[(4-hydroxytetrahydropyran-4-yl)methyl]pyrazole-4-sulfonamide] |
| < 250 nM | 250 to 1000 nM | CC(C)(O)Cn1ncc(S(=O)(=O)Nc2ccc(Cl)c3c(C#N)c[nH]c23)c1F [Compound 188, N-(4-chloro-3-cyano-1H-indol-7-yl)-5-fluoro-1-(2-hydroxy-2-methyl-propyl)pyrazole-4-sulfonamide] |
| < 250 nM | 250 to 1000 nM | COC1CC(n2cc(S(=O)(=O)Nc3ccc(Cl)c4c(C#N)c[nH]c34)cn2)C1 (stereo not drawn) [Compound 189, N-(4-chloro-3-cyano-1H-indol-7-yl)-1-(3-methoxycyclobutyl)pyrazole-4-sulfonamide] |
| < 250 nM | 250 to 1000 nM | COC1CC(n2cc(S(=O)(=O)Nc3cccc4c(Cl)c[nH]c34)cn2)C1 (stereo not drawn) [Compound 190, N-(3-chloro-1H-indol-7-yl)-1-(3-methoxycyclobutyl)pyrazole-4-sulfonamide] |
| < 250 nM | < 250 nM | N#Cc1c[nH]c2c(NS(=O)(=O)c3cnn(C4(CO)CCC4)c3)ccc(Cl)c12 [Compound 191, N-(4-chloro-3-cyano-1H-indol-7-yl)-1-[1-(hydroxymethyl)cyclobutyl]pyrazole-4-sulfonamide] |
| < 250 nM | > 1000 nM | CC(C)(O)Cn1cc(S(=O)(=O)Nc2ccc(F)c3c(C#N)c[nH]c23)cn1 [Compound 192, N-(3-cyano-4-fluoro-1H-indol-7-yl)-1-(2-hydroxy-2-methyl-propyl)pyrazole-4-sulfonamide] |
| < 250 nM | 250 to 1000 nM | Cc1ccc(NS(=O)(=O)c2cnn([C@H]3C[C@@H](O)C3)c2)c2[nH]cc(C#N)c12 [Compound 193, N-(3-cyano-4-methyl-1H-indol-7-yl)-1-(3-hydroxycyclobutyl)pyrazole-4-sulfonamide] |
| < 250 nM | > 1000 nM | O=S(=O)(Nc1cccc2c(Cl)c[nH]c12)c1cnn([C@H]2C[C@@H](O)C2)c1 [Compound 194, N-(3-chloro-1H-indol-7-yl)-1-(3-hydroxycyclobutyl)pyrazole-4-sulfonamide] |
| < 250 nM | 250 to 1000 nM | N#Cc1c[nH]c2c(NS(=O)(=O)c3cnn(CC4(CO)CC4)c3)ccc(Cl)c12 [Compound 195, N-(4-chloro-3-cyano-1H-indol-7-yl)-1-[[1-(hydroxymethyl)cyclopropyl]methyl]pyrazole-4-sulfonamide] |
| < 250 nM | 250 to 1000 nM | C[C@H](O)Cn1cc(S(=O)(=O)Nc2ccc(Cl)c3c(C#N)c[nH]c23)cn1 [Compound 196, N-(4-chloro-3-cyano-1H-indol-7-yl)-1-[(2S)-2-hydroxypropyl]pyrazole-4-sulfonamide] |
| < 250 nM | 250 to 1000 nM | C[C@@H](O)Cn1cc(S(=O)(=O)Nc2ccc(Cl)c3c(C#N)c[nH]c23)cn1 [Compound 197, N-(4-chloro-3-cyano-1H-indol-7-yl)-1-[(2R)-2-hydroxypropyl]pyrazole-4-sulfonamide] |
| < 250 nM | < 250 nM | Cc1ccc(NS(=O)(=O)c2cnn(C(C)(C)CO)c2)c2[nH]cc(C#N)c12 [Compound 198, N-(3-cyano-4-methyl-1H-indol-7-yl)-1-(2-hydroxy-1,1-dimethyl-ethyl)pyrazole-4-sulfonamide] |
